The values below come from patent US9433687B2, “Anti-Notch3 antibodies and antibody-drug conjugates” (Pfizer Inc., priority 2012, dated 2016).

The nature of data set [1]: OVCAR3 ovarian xenograft model. To be noted: female, SCID Hairless Outbred (SHO), mouse, in vivo, ip.
For data set [2], the system named is OVCAR3 ovarian xenografts. Kind of data set: OVCAR3 ovarian xenograft model. As to conditions: dose 60 mg/kg (30 mg/kg twice a day) intraperitoneally Q7d×4.
The next data set addresses T1, MDA-MB-468/hNotch3 (Homo sapiens, UniProt Q9UM47).
T1 construct: cell lines engineered to over-express full length human Notch3 protein: MDA-MB-468/hNotch3 and U2OS/hNotch3; expressed in transfected cells; host or cells: MDA-MB-468
Kind of data set: In vitro cytotoxicity (MTS), MDA-MB-468/hNotch3. Type of data set: cell-based. To be noted: Table 13; four days; LP = lacked potency. On the procedure: (§1) The effects of anti-Notch3 ADCs were assessed on 1) cell lines endogenously expressing Notch3 protein: HCC2429 (lung cancer), OVCAR3 (ovarian cancer) and MDA-MB-468 (breast cancer), 2) cell lines engineered to over-express full length human Notch3 protein: MDA-MB-468/hNotch3 and U2OS/hNotch3, and 3) a negative control cell line (SW900) using an MTS cellular viability indicator (Promega, Madison, Wis.). These cell lines were cultured with increasing concentrations of anti-Notch3 ADCs comprising rat-human chimeric anti-Notch3 antibodies, ch28 and ch75, and humanized anti-Notch3 antibodies, hu28 and hu75, conjugated to various linker-payload combinations of the present invention. As a specificity control for the anti-Notch3-ADCs, non-targeted control-ADCs (huNeg8.8-ADCs or ch2H6-ADCs) were also tested on the same cell lines. After four days, viability of each culture was assessed. IC50 values were calculated by logistic non-linear regression, model #203 with XL fit v4.2 (IDBS, Guildford, Surry, UK) and presented as ng Ab/mL. The drug antibody ratio (DAR) is also provided.

The test system of a further data set is HCC2429 (lung cancer). Kind of data set: In vitro cytotoxicity (MTS), HCC2429. As to conditions: Table 13; four days; LP = lacked potency. In kind it is cell-based, human. On the procedure:
as §1
(§2) This process generated the anti-Notch3 cysteine mutant ADCs: hu28-(L443C)-vc0101 and hu28-(L443C/κK183C)-vc0101. The activity of the anti-Notch3 cysteine mutant ADCs were assessed on cell lines endogenously expressing Notch3 protein: HCC2429 (lung cancer) and OVCAR3 (ovarian cancer) using an MTS cellular viability indicator as described in previous Examples.

In a further data set the target is U2OS/hNotch3 (Homo sapiens, UniProt Q9UM47). Description: In vitro cytotoxicity (MTS), U2OS/hNotch3. In kind it is cell-based. Details: U-2 OS cells stably over-expressing human full length Notch3 protein on cell surface; expressed in transfected cells; host or cells: U-2 OS (human osteosarcoma). To be noted: Table 13; four days; LP = lacked potency. On the procedure: as §1
Sequence of U2OS/hNotch3 (Q9UM47 40-2321): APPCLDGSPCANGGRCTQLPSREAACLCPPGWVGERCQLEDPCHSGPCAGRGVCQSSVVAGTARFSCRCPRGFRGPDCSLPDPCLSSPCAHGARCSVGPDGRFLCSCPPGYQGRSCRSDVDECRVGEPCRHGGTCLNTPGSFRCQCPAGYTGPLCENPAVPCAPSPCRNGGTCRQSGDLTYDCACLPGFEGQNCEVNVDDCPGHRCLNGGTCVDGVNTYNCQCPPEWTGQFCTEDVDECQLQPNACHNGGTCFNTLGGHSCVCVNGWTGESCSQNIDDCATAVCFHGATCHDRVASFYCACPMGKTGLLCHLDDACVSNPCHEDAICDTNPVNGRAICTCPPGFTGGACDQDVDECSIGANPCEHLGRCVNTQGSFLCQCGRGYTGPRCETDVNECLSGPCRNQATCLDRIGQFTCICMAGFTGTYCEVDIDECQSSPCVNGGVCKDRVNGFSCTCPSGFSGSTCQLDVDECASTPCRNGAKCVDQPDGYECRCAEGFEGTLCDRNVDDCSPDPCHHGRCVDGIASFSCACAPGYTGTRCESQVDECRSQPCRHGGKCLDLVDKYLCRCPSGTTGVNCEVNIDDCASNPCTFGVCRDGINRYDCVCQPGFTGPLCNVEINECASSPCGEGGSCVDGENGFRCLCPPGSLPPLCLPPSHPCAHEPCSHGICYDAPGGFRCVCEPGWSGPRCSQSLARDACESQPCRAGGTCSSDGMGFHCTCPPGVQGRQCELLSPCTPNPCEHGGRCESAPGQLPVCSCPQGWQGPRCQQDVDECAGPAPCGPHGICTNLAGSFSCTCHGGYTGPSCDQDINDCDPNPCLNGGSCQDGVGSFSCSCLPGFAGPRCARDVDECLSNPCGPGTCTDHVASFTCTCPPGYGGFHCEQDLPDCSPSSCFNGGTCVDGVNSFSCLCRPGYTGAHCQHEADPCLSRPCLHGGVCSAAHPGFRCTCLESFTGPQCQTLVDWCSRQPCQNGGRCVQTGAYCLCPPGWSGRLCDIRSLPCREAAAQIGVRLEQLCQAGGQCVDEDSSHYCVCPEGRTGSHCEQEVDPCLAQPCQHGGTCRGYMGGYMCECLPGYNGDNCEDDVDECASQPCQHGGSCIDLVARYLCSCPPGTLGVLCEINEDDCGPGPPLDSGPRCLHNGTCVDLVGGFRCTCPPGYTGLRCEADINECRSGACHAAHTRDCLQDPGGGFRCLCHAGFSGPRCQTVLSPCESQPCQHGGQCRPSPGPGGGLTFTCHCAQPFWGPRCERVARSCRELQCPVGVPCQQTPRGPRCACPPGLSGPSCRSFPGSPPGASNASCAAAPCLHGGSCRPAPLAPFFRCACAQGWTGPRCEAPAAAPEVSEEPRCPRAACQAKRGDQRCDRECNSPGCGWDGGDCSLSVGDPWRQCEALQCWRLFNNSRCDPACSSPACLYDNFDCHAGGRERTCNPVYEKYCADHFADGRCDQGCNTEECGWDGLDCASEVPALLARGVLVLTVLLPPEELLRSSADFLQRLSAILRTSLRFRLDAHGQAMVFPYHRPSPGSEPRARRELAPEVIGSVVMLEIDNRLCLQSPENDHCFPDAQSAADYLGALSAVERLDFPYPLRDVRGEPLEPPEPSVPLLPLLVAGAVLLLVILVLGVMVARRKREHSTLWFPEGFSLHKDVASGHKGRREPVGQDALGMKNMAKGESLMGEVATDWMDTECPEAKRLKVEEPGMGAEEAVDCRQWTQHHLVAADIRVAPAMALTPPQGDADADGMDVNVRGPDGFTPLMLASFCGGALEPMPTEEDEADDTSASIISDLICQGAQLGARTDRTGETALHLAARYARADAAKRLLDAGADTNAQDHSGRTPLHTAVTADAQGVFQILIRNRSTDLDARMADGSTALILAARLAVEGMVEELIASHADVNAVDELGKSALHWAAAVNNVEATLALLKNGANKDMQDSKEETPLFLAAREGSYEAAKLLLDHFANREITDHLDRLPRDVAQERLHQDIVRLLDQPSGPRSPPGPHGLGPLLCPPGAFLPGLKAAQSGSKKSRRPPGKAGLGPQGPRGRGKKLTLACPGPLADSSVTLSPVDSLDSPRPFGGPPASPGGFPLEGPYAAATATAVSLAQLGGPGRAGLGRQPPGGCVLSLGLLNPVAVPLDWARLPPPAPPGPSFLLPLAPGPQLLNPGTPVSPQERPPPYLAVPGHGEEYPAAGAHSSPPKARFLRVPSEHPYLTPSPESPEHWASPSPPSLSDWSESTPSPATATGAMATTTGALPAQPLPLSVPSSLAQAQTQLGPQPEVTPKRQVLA

Data set [3] relates to MDA-MB-468 (breast cancer). Kind of data set: In vitro cytotoxicity (MTS), MDA-MB-468. As to conditions: Table 13; four days; LP = lacked potency. In kind it is cell-based, human. On the procedure: as §1
A further data set has as its system OVCAR3 (ovarian cancer). Kind of data set: In vitro cytotoxicity (MTS), OVCAR3. Type of data set: cell-based, human. To be noted: Table 13; four days; LP = lacked potency. On the procedure:
as §1, §2

T1 sequence (Q9UM47 40-2321): as above

As to `CC(=O)O[C@H]1C(=O)[C@@]2(C)[C@H]([C@H](OC(=O)c3ccccc3)[C@]3(O)C[C@H](OC(=O)[C@H](O)[C@@H](NC(=O)c4ccccc4)c4ccccc4)C(C)=C1C3(C)C)[C@]1(OC(C)=O)CO[C@@H]1C[C@@H]2O` [paclitaxel, reference compound], the MTD in data set [1] is 60 mg/kg. Further, the tumor volume in data set [2] (DAY 0) is given as 169 mm3; in data set [2] (DAY 6), 139 mm3; in data set [2] (DAY 11), 85 mm3; in data set [2] (DAY 14) it was 84 mm3; in data set [2] (DAY 18), 61 mm3; in data set [2] (DAY 21), 50 mm3. Also, the tumor volume is 41 mm3 in data set [2] (DAY 25); 44 mm3 in data set [2] (DAY 28); 43 mm3 in data set [2] (DAY 31); 50 mm3 in data set [2] (DAY 34); 55 mm3 in data set [2] (DAY 38); 38 mm3 in data set [2] (DAY 41). The tumor volume in data set [2] (DAY 45) is 39 mm3; in data set [2] (DAY 49), 40 mm3; in data set [2] (DAY 53) it was 40 mm3; in data set [2] (DAY 56), 39 mm3; in data set [2] (DAY 59), 37 mm3; in data set [2] (DAY 63) it was 42 mm3. The tumor volume in data set [2] (DAY 67) is reported as 33 mm3; in data set [2] (DAY 70), 28 mm3; in data set [2] (DAY 74), 32 mm3; in data set [2] (DAY 77) it was 31 mm3; in data set [2] (DAY 80), 31 mm3; in data set [2] (DAY 83), 38 mm3. For the same molecule, the tumor volume came out at 28 mm3 in data set [2] (DAY 87); 32 mm3 in data set [2] (DAY 90); 30 mm3 in data set [2] (DAY 94); 31 mm3 in data set [2] (DAY 97); 26 mm3 in data set [2] (DAY 102); 31 mm3 in data set [2] (DAY 105). The tumor volume in data set [2] (DAY 108) is reported as 28 mm3; in data set [2] (DAY 111), 26 mm3; in data set [2] (DAY 115) it was 31 mm3; in data set [2] (DAY 118), 26 mm3; in data set [2] (DAY 122) it was 31 mm3.

B1: ch28-vc0101: ch28 conjugated to vc0101 linker-payload (conjugate)
VH: EVQLVESGGGLVQPGRSLTLSCVASGFTFRDYGMTWIRQAPGKGLTWVAYISSGSNYIYYAEAVKGRFTISRDNAKNTLYLQMTSLRSEDTALYFCTRRGPFVLDAWGQGASVTVSS
VL: DIQMTQSPSFLSASVGDRVTINCKASQSINRYLHWFQQKLGEAPKLLIYNANGLQTGIPSRFSGSGSGTDFTLTISSLQSEDVATYFCLQHNTWPDTFGAGTKLELK
On to B1, for which the “IC50 (ng Ab/mL) ± S.E.M., MDA-MB-468/hNotch3” value with MDA-MB-468/hNotch3 came to 4 ± 0.5 ng Ab/mL. In addition, the “IC50 (ng Ab/mL) ± S.E.M., HCC2429” value with HCC2429 (lung cancer) is recorded as 3230 ± 1116.5 ng Ab/mL. For the same molecule, the “IC50 (ng Ab/mL) ± S.E.M., U2OS/hNotch3” value with U2OS/hNotch3 came to 95 ± 18.2 ng Ab/mL. The “IC50 (ng Ab/mL) ± S.E.M., MDA-MB-468” value in data set [3] turned out to be 5443 ± 2630.9 ng Ab/mL. Moreover, in the data set with OVCAR3 (ovarian cancer), the “IC50 (ng Ab/mL) ± S.E.M., OVCAR3” value was found to be 635 ng Ab/mL.
